Test results published in PubChem BioAssay (NCI).
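Values below derive from 48-hour exposures of cells grown in 96-well plates, with endpoints linearly interpolated between the two concentrations bracketing the appropriate inhibition level. The concentration for full growth arrest is given as TGI.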

Columns and labels:
Test in all cases: NCI-60 cell line screen, 48 h
786-0 renal = tested on: 786-0 renal
A498 renal = tested on: A498 renal
A549 NSCLC = tested on: A549 NSCLC
ACHN renal = tested on: ACHN renal
BT-549 breast = tested on: BT-549 breast
CAKI-1 renal = tested on: CAKI-1 renal
CCRF-CEM leukemia = tested on: CCRF-CEM leukemia
COLO 205 colon = tested on: COLO 205 colon
DU-145 prostate = tested on: DU-145 prostate
EKVX NSCLC = tested on: EKVX NSCLC
HCC-2998 colon = tested on: HCC-2998 colon
HCT-116 colon = tested on: HCT-116 colon
HCT-15 colon = tested on: HCT-15 colon
HL-60(TB) leukemia = tested on: HL-60(TB) leukemia
HOP-62 NSCLC = tested on: HOP-62 NSCLC
HOP-92 NSCLC = tested on: HOP-92 NSCLC
HS 578T breast = tested on: HS 578T breast
HT29 colon = tested on: HT29 colon
K-562 leukemia = tested on: K-562 leukemia
KM12 colon = tested on: KM12 colon
M14 melanoma = tested on: M14 melanoma
MALME-3M melanoma = tested on: MALME-3M melanoma
MCF7 breast = tested on: MCF7 breast
MDA-MB-231 breast = tested on: MDA-MB-231 breast
MDA-MB-435 = tested on: MDA-MB-435
MDA-N = tested on: MDA-N
MOLT-4 leukemia = tested on: MOLT-4 leukemia
NCI-H226 lung = tested on: NCI-H226 lung
NCI-H23 lung = tested on: NCI-H23 lung
NCI-H460 lung = tested on: NCI-H460 lung
NCI-H522 lung = tested on: NCI-H522 lung
NCI/ADR-RES ovarian = tested on: NCI/ADR-RES ovarian
OVCAR-3 ovarian = tested on: OVCAR-3 ovarian
OVCAR-4 ovarian = tested on: OVCAR-4 ovarian
OVCAR-5 ovarian = tested on: OVCAR-5 ovarian
OVCAR-8 ovarian = tested on: OVCAR-8 ovarian
PC-3 prostate = tested on: PC-3 prostate
RXF 393 renal = tested on: RXF 393 renal
SF-268 CNS = tested on: SF-268 CNS
SF-295 CNS = tested on: SF-295 CNS
SF-539 CNS = tested on: SF-539 CNS
SK-MEL-2 melanoma = tested on: SK-MEL-2 melanoma
SK-MEL-28 melanoma = tested on: SK-MEL-28 melanoma
SK-MEL-5 melanoma = tested on: SK-MEL-5 melanoma
SK-OV-3 ovarian = tested on: SK-OV-3 ovarian
SN12C renal = tested on: SN12C renal
SNB-19 CNS = tested on: SNB-19 CNS
SNB-75 CNS = tested on: SNB-75 CNS
SW-620 colon = tested on: SW-620 colon
T-47D breast = tested on: T-47D breast
TK-10 renal = tested on: TK-10 renal
U251 CNS = tested on: U251 CNS
UACC-257 melanoma = tested on: UACC-257 melanoma
UACC-62 melanoma = tested on: UACC-62 melanoma
UO-31 renal = tested on: UO-31 renal
IGROV1 ovarian = tested on: IGROV1 ovarian
LOX IMVI melanoma = tested on: LOX IMVI melanoma
RPMI-8226 leukemia = tested on: RPMI-8226 leukemia

O=C(c1ccc(Cl)cc1)N(C(=S)OC12CC3CC(CC(C3)C1)C2)c1ccccc1
TGI (786-0 renal): > 100 µM | TGI (A498 renal): > 100 µM | TGI (A549 NSCLC): > 100 µM | TGI (ACHN renal): > 100 µM | TGI (BT-549 breast): > 100 µM | TGI (CAKI-1 renal): > 100 µM | TGI (CCRF-CEM leukemia): > 100 µM | TGI (COLO 205 colon): 31.2 µM | TGI (DU-145 prostate): > 100 µM | TGI (EKVX NSCLC): 66.5 µM | TGI (HCC-2998 colon): > 100 µM | TGI (HCT-116 colon): > 100 µM | TGI (HCT-15 colon): > 100 µM | TGI (HL-60(TB) leukemia): 62.6 µM | TGI (HOP-62 NSCLC): > 100 µM | TGI (HOP-92 NSCLC): > 100 µM | TGI (HS 578T breast): > 100 µM | TGI (HT29 colon): > 100 µM | TGI (K-562 leukemia): > 100 µM | TGI (KM12 colon): > 100 µM | TGI (M14 melanoma): > 100 µM | TGI (MALME-3M melanoma): > 100 µM | TGI (MCF7 breast): > 100 µM | TGI (MDA-MB-231 breast): > 100 µM | TGI (MDA-MB-435): > 100 µM | TGI (MDA-N): > 100 µM | TGI (MOLT-4 leukemia): 73.5 µM | TGI (NCI-H226 lung): > 100 µM | TGI (NCI-H23 lung): > 100 µM | TGI (NCI-H460 lung): > 100 µM | TGI (NCI-H522 lung): 56.3 µM | TGI (NCI/ADR-RES ovarian): > 100 µM | TGI (OVCAR-3 ovarian): > 100 µM | TGI (OVCAR-4 ovarian): > 100 µM | TGI (OVCAR-5 ovarian): > 100 µM | TGI (OVCAR-8 ovarian): > 100 µM | TGI (PC-3 prostate): > 100 µM | TGI (RXF 393 renal): > 100 µM | TGI (SF-268 CNS): > 100 µM | TGI (SF-295 CNS): > 100 µM | TGI (SF-539 CNS): > 100 µM | TGI (SK-MEL-2 melanoma): > 100 µM | TGI (SK-MEL-28 melanoma): > 100 µM | TGI (SK-MEL-5 melanoma): > 100 µM | TGI (SK-OV-3 ovarian): > 100 µM | TGI (SN12C renal): > 100 µM | TGI (SNB-19 CNS): 89.7 µM | TGI (SNB-75 CNS): > 100 µM | TGI (SW-620 colon): > 100 µM | TGI (T-47D breast): > 100 µM | TGI (TK-10 renal): > 100 µM | TGI (U251 CNS): > 100 µM | TGI (UACC-257 melanoma): > 100 µM | TGI (UACC-62 melanoma): > 100 µM | TGI (UO-31 renal): 74.5 µM

CCO/C(O)=C(/C(=N)N1CCOCC1)C(=O)Nc1ccc(Cl)cc1
TGI (786-0 renal): > 100 µM | TGI (A498 renal): > 100 µM | TGI (A549 NSCLC): > 100 µM | TGI (ACHN renal): > 100 µM | TGI (BT-549 breast): > 100 µM | TGI (CAKI-1 renal): > 100 µM | TGI (CCRF-CEM leukemia): > 100 µM | TGI (COLO 205 colon): > 100 µM | TGI (DU-145 prostate): > 100 µM | TGI (EKVX NSCLC): > 100 µM | TGI (HCC-2998 colon): > 100 µM | TGI (HCT-116 colon): > 100 µM | TGI (HCT-15 colon): > 100 µM | TGI (HL-60(TB) leukemia): > 100 µM | TGI (HOP-62 NSCLC): > 100 µM | TGI (HS 578T breast): > 100 µM | TGI (HT29 colon): > 100 µM | TGI (IGROV1 ovarian): > 100 µM | TGI (K-562 leukemia): > 100 µM | TGI (KM12 colon): > 100 µM | TGI (LOX IMVI melanoma): > 100 µM | TGI (M14 melanoma): > 100 µM | TGI (MALME-3M melanoma): > 100 µM | TGI (MCF7 breast): > 100 µM | TGI (MDA-MB-231 breast): > 100 µM | TGI (MDA-MB-435): > 100 µM | TGI (MDA-N): > 100 µM | TGI (MOLT-4 leukemia): > 100 µM | TGI (NCI-H226 lung): > 100 µM | TGI (NCI-H23 lung): > 100 µM | TGI (NCI-H460 lung): > 100 µM | TGI (NCI-H522 lung): > 100 µM | TGI (NCI/ADR-RES ovarian): > 100 µM | TGI (OVCAR-3 ovarian): > 100 µM | TGI (OVCAR-4 ovarian): > 100 µM | TGI (OVCAR-5 ovarian): > 100 µM | TGI (OVCAR-8 ovarian): > 100 µM | TGI (PC-3 prostate): > 100 µM | TGI (RPMI-8226 leukemia): > 100 µM | TGI (RXF 393 renal): > 100 µM | TGI (SF-268 CNS): > 100 µM | TGI (SF-295 CNS): > 100 µM | TGI (SF-539 CNS): > 100 µM | TGI (SK-MEL-2 melanoma): > 100 µM | TGI (SK-MEL-28 melanoma): > 100 µM | TGI (SK-OV-3 ovarian): > 100 µM | TGI (SN12C renal): > 100 µM | TGI (SNB-19 CNS): > 100 µM | TGI (SNB-75 CNS): > 100 µM | TGI (SW-620 colon): > 100 µM | TGI (T-47D breast): > 100 µM | TGI (TK-10 renal): > 100 µM | TGI (U251 CNS): > 100 µM | TGI (UACC-257 melanoma): > 100 µM | TGI (UACC-62 melanoma): > 100 µM

C[C@]12CC[C@@H]3c4cc(Br)c(O)c(Br)c4CC[C@H]3[C@@H]1CC(Br)C2=O (stereo partly specified)
TGI (786-0 renal): > 100 µM | TGI (A498 renal): 44.6 µM | TGI (A549 NSCLC): 38.8 µM | TGI (ACHN renal): 21.2 µM | TGI (BT-549 breast): 17.6 µM | TGI (CAKI-1 renal): 15.9 µM | TGI (CCRF-CEM leukemia): 50.5 µM | TGI (COLO 205 colon): > 100 µM | TGI (DU-145 prostate): > 100 µM | TGI (EKVX NSCLC): 39.6 µM | TGI (HCC-2998 colon): 3.73 µM | TGI (HCT-116 colon): > 100 µM | TGI (HCT-15 colon): 10.1 µM | TGI (HL-60(TB) leukemia): 7.52 µM | TGI (HOP-92 NSCLC): 45.6 µM | TGI (HS 578T breast): 82.4 µM | TGI (HT29 colon): 10.7 µM | TGI (IGROV1 ovarian): 23.6 µM | TGI (K-562 leukemia): 13.6 µM | TGI (KM12 colon): 15.8 µM | TGI (LOX IMVI melanoma): > 100 µM | TGI (M14 melanoma): > 100 µM | TGI (MALME-3M melanoma): 34.2 µM | TGI (MCF7 breast): 29.9 µM | TGI (MDA-MB-231 breast): 75 µM | TGI (MDA-MB-435): 21.6 µM | TGI (MDA-N): 43.5 µM | TGI (MOLT-4 leukemia): 9.36 µM | TGI (NCI-H226 lung): 26.6 µM | TGI (NCI-H460 lung): 18.8 µM | TGI (NCI/ADR-RES ovarian): 39.5 µM | TGI (OVCAR-4 ovarian): > 100 µM | TGI (OVCAR-5 ovarian): 73.2 µM | TGI (OVCAR-8 ovarian): 7.83 µM | TGI (PC-3 prostate): 27.2 µM | TGI (RXF 393 renal): 19.3 µM | TGI (SF-268 CNS): 26.8 µM | TGI (SF-295 CNS): 33.1 µM | TGI (SF-539 CNS): 24.4 µM | TGI (SK-MEL-2 melanoma): 27.3 µM | TGI (SK-MEL-28 melanoma): 22.3 µM | TGI (SK-OV-3 ovarian): 30.2 µM | TGI (SN12C renal): 38.4 µM | TGI (SNB-75 CNS): 27.9 µM | TGI (SW-620 colon): 9.57 µM | TGI (T-47D breast): > 100 µM | TGI (TK-10 renal): 29.4 µM | TGI (U251 CNS): 12.7 µM | TGI (UACC-257 melanoma): 33.5 µM | TGI (UACC-62 melanoma): 14.8 µM | TGI (UO-31 renal): 9.03 µM
